Laboratory results: patent US8642621B2, “(4-phenyl-piperidin-1-yl)-[5-(1H-pyrazol-4-yl)-thiophen-3-yl]-methanone compounds and their use” (The University Of Edinburgh, priority 2009, dated 2014)
Like-named read-outs stand apart in the source and are kept apart here.

How the values were obtained:
[1] = target: T1, human 11β-HSD1 enzyme (Homo sapiens, UniProt P28845); test: Cellular in vitro 11β-HSD1 enzyme inhibition assay (SPA, HEK293/11β-HSD1 cells); type: cell-based
T1 construct: stably transfected with a construct containing the full-length gene coding for the human 11β-HSD1 enzyme; expressed in transfected cells; HEK293/11β-HSD1 cells)
T1 sequence (P28845 whole entry): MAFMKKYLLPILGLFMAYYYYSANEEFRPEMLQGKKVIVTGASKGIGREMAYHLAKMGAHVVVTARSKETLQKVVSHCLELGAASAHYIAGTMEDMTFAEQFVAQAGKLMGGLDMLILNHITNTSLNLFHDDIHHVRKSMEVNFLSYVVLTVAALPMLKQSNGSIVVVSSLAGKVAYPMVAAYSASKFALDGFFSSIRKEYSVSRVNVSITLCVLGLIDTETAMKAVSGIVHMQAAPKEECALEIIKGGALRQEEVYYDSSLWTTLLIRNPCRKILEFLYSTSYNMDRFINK
Description: Cellular In Vitro 11β-HSD1 Enzyme Inhibition Assay
Compounds were assessed by a Scintillation Proximity Assay (SPA) performed according to the following protocol:
HEK293 cells were stably transfected with a construct containing the full-length gene coding for the human 11β-HSD1 enzyme to create HEK293/11β-HSD1 cells. Cells were routinely cultured in DMEM containing 10% calf foetal serum, 1% glutamine, and 1% penicillin and streptomycin. Prior to assay, cells were plated at 2×10^4 cells/well in 96-well poly-D-Lys coated flat-bottomed microplates and incubated in 5% CO2, 95% O2 at 37° C. for 24 hours. The media in each well was removed immediately before assay.
Compounds to be tested were dissolved in DMSO at 10 mM and serially diluted into water containing 10% DMSO. Diluted compounds at a volume of 10 μL were added to wells of a 96-well V-bottomed microplate. A solution of DMEM, 1% glutamine, 1% penicillin and streptomycin, and 22 nM tritiated cortisone was prepared and 90 μL added to each well of the assay plate. This solution (100 μL/well) was transferred to the plate containing the cells. The plate was then incubated in 5% CO2, 95% O2 at 37° C. for 2 hours.
Following this incubation, 50 μL of the assay solution was transferred to each well of a 96-well scintillation microplate. A mixture consisting of anti-mouse YSi SPA beads, pre-mixed with anti-cortisol antibody in assay buffer (50 mM Tris.HCl, pH 7.0; 300 mM NaCl; 1 mM EDTA, 5% glycerol) was prepared and 50 μL added to each well of the scintillation microplate. An adhesive strip was applied to the microplate and the plate gently shaken for at least 2 hours at room temperature, and then spun briefly on a low speed centrifuge. The plate was read on a scintillation counter suitable for 96-well microplates. For the calculation of percentage inhibition, a series of wells were added to the plate that represented the assay maximum and the assay minimum: one set that contained substrate without cells (minimum) and another set that contained substrate and cells without any compound (maximum).
The calculation of median inhibitory concentration (IC50) values for the compounds was performed using GraphPad Prism® software. Dose-response curves for each compound were plotted as fractional inhibition and data fitted to the four parameter logistic equation.

[2] = In vitro human liver microsomal stability assay; type: in vitro ADME; conditions: human liver microsomes
Description: In Vitro Human Liver Microsomal Stability Assay
To predict in vivo metabolism of compounds, the stability of compounds incubated with human liver microsomes in vitro was determined. Human liver microsome preparations were stored at −80° C. and thawed on ice prior to use. The thawed microsomes were diluted to a concentration of 2 mg/mL in 50 mM sodium phosphate, pH 7.4. Reference and test compounds were prepared as 10 mM stocks in 100% DMSO and diluted to 1 mM in acetonitrile before use. Each compound was tested in triplicate as follows:
4 μL of test or reference compound was added to a well of a 24-well microplate and 0.5 mL of 4 mM NADPH added. The plate was then transferred to a shaker for 10 minutes at room temperature. 30 μL of the compound/NADPH solution was transferred to the well of a 96-well microplate and incubated at 37° C. for 5 minutes. 30 μL of human liver microsomes (pre-incubated at 37° C. for 5 minutes) was added to the well containing the compound/NADPH solution and the plate incubated for the selected period of time (typically 0 or 30 minutes). The reaction was stopped by adding 60 μL of ice cold […] trichloroacetic acid. The plate was centrifuged at 1000 rpm for 5 minutes at room temperature and the supernatant transferred to the well of a new 96-well v-bottomed microplate for mass spectrometric analysis.
Samples were analyzed by TSQ Quantum Discovery Tandem Mass Spectrometer and Surveyor Liquid Chromatogram (Thermo, Hemel-Hempstead, UK). 10 μL of each sample was injected in a mobile phase consisting of 60%:40% methanol:5 mM ammonium acetate at a flow rate of 0.5 mL/minute. The column used was a BDS hypersil, C18, 50×2.1 mm with a 5 μm particle size.
Each compound was tuned with a spray voltage of 3000 V and a capillary temperature of 300° C. and values for tube lens, CID and product ions were determined.
The peak area for each compound was measured in triplicate for the 0 and 30 minute samples and the average of each was reported. The percentage remaining after 30 minutes was calculated as the average peak area of the sample after 30 minutes divided by the average peak area at 0 minutes. The RSD was 10% or lower for each compound.

[3] = target: T2, human 11β-HSD2 (Homo sapiens, UniProt P80365); test: Cellular in vitro 11β-HSD2 enzyme inhibition assay (CHO cells); type: cell-based; conditions: CHO cells stably transfected with human 11β-HSD2; Table 1
T2 construct: CHO cells stably transfected with the full-length gene coding for human 11β-HSD2 were used; expressed in transfected cells
T2 sequence (P80365 1-405): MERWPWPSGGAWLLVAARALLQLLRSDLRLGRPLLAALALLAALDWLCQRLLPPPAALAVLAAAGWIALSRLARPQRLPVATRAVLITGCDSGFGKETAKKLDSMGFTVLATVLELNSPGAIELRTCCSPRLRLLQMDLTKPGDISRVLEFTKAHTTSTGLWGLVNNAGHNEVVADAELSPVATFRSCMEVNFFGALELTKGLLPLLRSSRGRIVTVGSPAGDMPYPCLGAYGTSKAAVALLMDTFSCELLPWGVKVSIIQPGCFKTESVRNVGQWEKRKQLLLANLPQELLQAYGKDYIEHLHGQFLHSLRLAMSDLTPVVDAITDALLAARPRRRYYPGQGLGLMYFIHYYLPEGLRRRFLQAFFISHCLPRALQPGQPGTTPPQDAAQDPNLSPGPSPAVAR
Description: Cellular In Vitro 11β-HSD2 Enzyme Inhibition Assay
Assays were carried out in 96-well microplates containing 1×10^5 cells/well. Controls and compounds were plated as above, so that the final DMSO concentration in each well was 1%. To initiate the assay, 90 μL of a solution of HAMS F-12 medium containing 1% glutamine, 1% penicillin and streptomycin, and 22 nM tritiated cortisol was added to each well of the assay plate. The plate was then incubated in 5% CO2, 95% O2 at 37° C. for 16 hours.
The assay solutions were transferred to glass tubes and 20 μL ethyl acetate added to each tube. Each tube was vortexed thoroughly and the upper layer containing the tritiated steroid transferred to a fresh glass tube. The solvent was evaporated by placing the tubes in a heating block at 65° C. under a stream of Nitrogen gas. 20 μL ethanol was added to each of the dried samples and vortexed briefly. Each sample was applied to a silica TLC plate and the plate dried. The plate was placed vertically in a glass tank containing 92% chloroform:8% ethanol and the solvent allowed to rise up the plate. The plate was dried, placed in an imaging cassette, and overlayed with a tritium imaging plate for 1-2 days. The amount of enzyme inhibition in each sample was determined by measuring the intensity of the substrate and product spots using a phosphoimager.
IC50 values for inhibitors were determined as described for 11β-HSD1.

[4] = read-out: IC50 for 11β-HSD1 (HEK293)
[5] = HEK293 cells stably transfected with human 11β-HSD1, Table 1, read-out: IC50 for 11β-HSD1 (HEK293)

| Structure (SMILES) | IC50 [1, 4] [nM] | other results |
| --- | --- | --- |
| O=C(c1csc(-c2cn[nH]c2)c1)N1CCC(c2ccccc2CO)CC1 [BB-14] | ≤ 500 | – |
| O=C(c1csc(-c2cn[nH]c2)c1)N1CCC(O)(c2ccccc2C(F)(F)F)CC1 [AA-14] | ≤ 500 | – |
| O=C(c1csc(-c2cn[nH]c2)c1)N1CC2CCC(C1)C2(O)c1ccccc1 (centres unmarked) [AA-32] | 500 to 1000 | – |
| O=C(c1csc(-c2cn[nH]c2)c1)N1CCC(c2ccccc2F)CC1 [BB-07] | ≤ 500 | % Parent Remaining at 30 min [2]: + (0-30% +) |
| O=C(c1csc(-c2cn[nH]c2)c1)N1CCC(F)(c2ccc(Cl)cc2Cl)CC1 [AA-38] | ≤ 500 | – |
| O=C(c1csc(-c2cn[nH]c2)c1)N1CCC(O)(c2cc(Cl)ccc2Cl)CC1 [AA-31] | ≤ 500 | – |
| O=C(c1csc(-c2cn[nH]c2)c1)N1CCC(O)(c2ccccc2O)CC1 [AA-10] | 1000 to 10000 | – |
| Cc1cccc(F)c1C1(F)CCN(C(=O)c2csc(-c3cn[nH]c3)c2)CC1 [AA-40] | ≤ 500 | – |
| O=C(c1csc(-c2cn[nH]c2)c1)N1C2CCC1CC(O)(c1ccccc1Cl)C2 (centres unmarked) [AA-30] | ≤ 500 | IC50 [1, 5]: 15 nM; IC50 [3]: > 10000 nM; % Parent Remaining at 30 min [2]: ++ (31-60% ++) |
| N#CC1(c2ccccc2)CCN(C(=O)c2csc(-c3cn[nH]c3)c2)CC1 [AA-20] | – | IC50 [1]: 1000 to 10000 nM |
| O=C(c1csc(-c2cn[nH]c2)c1)N1CCC(c2ccc(F)cc2)CC1 [BB-01] | 500 to 1000 | % Parent Remaining at 30 min [2]: +++ (61-100% +++) |
| O=C(c1csc(-c2cn[nH]c2)c1)N1CCC(F)(c2ccc(Cl)cc2)CC1 [AA-35] | 500 to 1000 | – |
| Cc1n[nH]cc1-c1cc(C(=O)N2CCC(c3ccccc3)CC2)cs1 [BB-11] | 500 to 1000 | IC50 [1, 5]: 638 nM; IC50 [3]: > 10000 nM |
| O=C(c1csc(-c2cn[nH]c2)c1)N1CCC(c2ccccc2C(F)(F)F)CC1 [BB-13] | 500 to 1000 | % Parent Remaining at 30 min [2]: +++ (61-100% +++) |
| Cc1ccccc1C1CCN(C(=O)c2csc(-c3cn[nH]c3)c2)CC1 [BB-12] | ≤ 500 | – |
| Cc1n[nH]cc1-c1cc(C(=O)N2CCC(O)(c3ccccc3Cl)CC2)cs1 [AA-29] | ≤ 500 | – |
| O=C(c1csc(-c2cn[nH]c2)c1)N1CCC(O)(c2ccc(F)cc2F)CC1 [AA-09] | ≤ 500 | % Parent Remaining at 30 min [2]: +++ (61-100% +++) |
| CC1(c2ccccc2)CCN(C(=O)c2csc(-c3cn[nH]c3)c2)CC1 [AA-16] | ≤ 500 | % Parent Remaining at 30 min [2]: + (0-30% +) |
| O=C(c1csc(-c2cn[nH]c2)c1)N1CCC(O)(c2cc(F)ccc2Cl)CC1 [AA-26] | ≤ 500 | – |
| O=C(c1csc(-c2cn[nH]c2)c1)N1CCC(c2ccccc2OC(F)F)CC1 [BB-09] | ≤ 500 | – |
| Cc1ccccc1C1(O)CCN(C(=O)c2csc(-c3cn[nH]c3)c2)CC1 [AA-13] | ≤ 500 | – |

| Structure (SMILES) | IC50 [1, 4] [nM] | other results |
| --- | --- | --- |
| N#Cc1ccccc1C1CCN(C(=O)c2csc(-c3cn[nH]c3)c2)CC1 [BB-04] | ≤ 500 | % Parent Remaining at 30 min [2]: ++ (31-60% ++) |
| O=C(c1csc(-c2cn[nH]c2)c1)N1CCC(O)(c2ccc(F)cc2Cl)CC1 [AA-12] | ≤ 500 | IC50 [1, 5]: 99 nM; IC50 [3]: > 10000 nM |
| O=C(c1csc(-c2cn[nH]c2)c1)N1CCC(O)(c2cccc(C(F)(F)F)c2)CC1 [AA-03] | 500 to 1000 | – |
| O=C(c1csc(-c2cn[nH]c2)c1)N1CCC(O)(c2c(F)cccc2Cl)CC1 [AA-23] | ≤ 500 | – |
| O=C(c1csc(-c2cn[nH]c2)c1)N1CCC(c2ccc(Cl)cc2)CC1 [BB-06] | 500 to 1000 | % Parent Remaining at 30 min [2]: +++ (61-100% +++) |
| O=C(c1csc(-c2cn[nH]c2)c1)N1CCC(O)(c2c(Cl)cccc2Cl)CC1 [AA-27] | ≤ 500 | – |
| O=C(c1csc(-c2cn[nH]c2)c1)N1CCC(O)(c2ccc(Cl)cc2F)CC1 [AA-07] | ≤ 500 | % Parent Remaining at 30 min [2]: +++ (61-100% +++) |
| O=C(c1csc(-c2cn[nH]c2)c1)N1CCC(c2ccc(F)cc2F)CC1 [BB-10] | 500 to 1000 | – |
| O=C(c1csc(-c2cn[nH]c2)c1)N1CCC(c2ccccc2Cl)CC1 [BB-15] | ≤ 500 | – |
| O=C(c1csc(-c2cn[nH]c2)c1)N1CCC(O)(c2ccc(Cl)c(Cl)c2)CC1 [AA-11] | ≤ 500 | – |
| CC1(c2ccccc2Cl)CCN(C(=O)c2csc(-c3cn[nH]c3)c2)CC1 [AA-34] | ≤ 500 | – |
| O=C(c1csc(-c2cn[nH]c2)c1)N1CCC(CO)(c2ccccc2)CC1 [AA-19] | 1000 to 10000 | – |
| O=C(c1csc(-c2cn[nH]c2)c1)N1CC2CCC(C1)C2(F)c1ccccc1 (centres unmarked) [AA-39, (8-Fluoro-8-phenyl-3-aza-bicyclo[3.2.1]oct-3-yl)-[5-(1H-pyrazol-4-yl)-thiophen-3-yl]methanone] | 1000 to 10000 | – |
| O=C(c1csc(-c2cn[nH]c2)c1)N1CCC(O)(c2c(F)cccc2F)CC1 [AA-28] | ≤ 500 | – |
| N#CC1(c2ccccc2Cl)CCN(C(=O)c2csc(-c3cn[nH]c3)c2)CC1 [AA-41] | – | IC50 [1]: 1000 to 10000 nM |
| O=C(c1csc(-c2cn[nH]c2)c1)N1CCC(O)(c2cccc(Cl)c2Cl)CC1 [AA-21] | ≤ 500 | – |
| O=C(c1csc(-c2cn[nH]c2)c1)N1CCC(O)(c2ccc(Cl)cc2Cl)CC1 [AA-24] | ≤ 500 | – |
| O=C(c1csc(-c2cn[nH]c2)c1)N1CCC(O)(c2ccc(F)cc2)CC1 [AA-05] | ≤ 500 | % Parent Remaining at 30 min [2]: +++ (61-100% +++) |
| COc1ccccc1C1(O)CC2CCC(C1)N2C(=O)c1csc(-c2cn[nH]c2)c1 (centres unmarked) [AA-25] | ≤ 500 | – |
| O=C(c1csc(-c2cn[nH]c2)c1)N1CCC(c2cccc(F)c2)CC1 [BB-05] | ≤ 500 | % Parent Remaining at 30 min [2]: ++ (31-60% ++) |
| N#Cc1ccc(C2CCN(C(=O)c3csc(-c4cn[nH]c4)c3)CC2)cc1 [BB-02] | 1000 to 10000 | – |
